≈ marks a conversion by molar mass, not a printed value.
Columns and labels:
Assay in all cases: Broth microdilution MIC, cephalosporin alone
Format in all cases: cell-based
[1] = tested on: Acinetobacter baumannii expressing class D enzyme OXA-23
Excerpt: (§1) To determine that ability of the test compound to inhibit the growth of beta-lactamase-producing bacterial strain, traditional cell-based screening experiments were employed. Six bacterial strains producing beta-lactamases were used: Escherichia coli expressing class an extended spectrum beta-lactamases (esbl) ctxm15 and shv5 (E. coli), Klebsiella pneumoniae expressing class a carbapenem enzyme kpc2, Pseudomonas aeruginosa expressing class B VIM-2, Enterobacter cloacae expressing class C P99+, and Acinetobacter baumannii expressing class D OXA-23 were studied. […] This experiment was performed in Cation Adjusted Mueller Hinton Broth (CAMHB, BD #212322, BD Diagnostic Systems, Sparks, Md.). The bacterial strains were grown in CAMBH broth for […]. All six strains were grown in the presence of 50 μg/mL ampicillin to ensure that resistance was maintained. At the same time, the test compound was diluted into 0.1 mg/mL stock solution in DMSO. The compound was added to the microplate and diluted in a 2-fold series in CAMHB to a final concentration of 32 to 0.25 μg/mL. A cover layer containing cephalosporin CAMHB was added to the compound at a termination concentration of 8 μg/mL or […]. […] The MIC reading of the dose escalation test of the test compound indicates the concentration of the analyte sufficient to inhibit beta-lactamase activity and protect the original antibacterial activity of cephalosporins. Six plates are required for each compound and each plate is used for one bacterial strain. In addition to the dose escalation test of the test compound, the MIC of a group of cephalosporins was tested to ensure that the strain remained consistent in behavior between the test and the test. Once the test compound and cephalosporin are added, the plates may be inoculated. The inoculation was carried out according to the CLSI broth microdilution method.

[2] = tested on: Enterobacter cloacae expressing class C P99+AmpC
Excerpt: as §1

[3] = tested on: Escherichia coli expressing class A ESBL SHV5; conditions: read-out: MIC alone
Excerpt: as §1

[4] = tested on: Pseudomonas aeruginosa expressing class B enzyme VIM-2
Excerpt: as §1

[5] = tested on: Klebsiella pneumoniae expressing carbapenem class A KPC2; conditions: antibiotic alone, K. pneumoniae KPC2, CAMHB
Excerpt: as §1

[6] = tested on: E. coli expressing class A ESBLCTXM15; conditions: Escherichia coli
Excerpt: as §1

| SMILES | MIC [1] [µg/mL] | MIC [2] [µg/mL] | MIC [3] [µg/mL] | MIC [4] [µg/mL] | MIC [5] [µg/mL] | MIC [6] [µg/mL] |
| --- | --- | --- | --- | --- | --- | --- |
| CC(C)(O/N=C(\C(=O)N[C@@H]1C(=O)N2C(C(=O)[O-])=C(C[n+]3ccccc3)CS[C@H]12)c1csc(N)n1)C(=O)O [Ceftazidime] | > 256 | 256 (≈ 468 µM) | > 1020 | > 256 | 32 (≈ 58.5 µM) | – |
| CO/N=C(\C(=O)N[C@@H]1C(=O)N2C(C(=O)O)=C(COC(C)=O)CS[C@H]12)c1csc(N)n1 [cefotaxime] | – | – | – | – | – | 1020 (≈ 2250 µM) |
